In patent US9902725B2, “Heterocyclic derivatives as RORgamma modulators” (GENFIT, priority 2014, dated 2018) one finds IC50 data, which are given here for 27 molecules.

What is called IC50 is the midpoint of a concentration-inhibition curve.

The target of the assay is T1, RORγt ligand-binding domain (RORγt-LBD) (Homo sapiens, UniProt P51449).
T1 construct: 20 nM recombinantly expressed RORγ-LBD fused to GST
T1 sequence (P51449 269-508 limits assumed): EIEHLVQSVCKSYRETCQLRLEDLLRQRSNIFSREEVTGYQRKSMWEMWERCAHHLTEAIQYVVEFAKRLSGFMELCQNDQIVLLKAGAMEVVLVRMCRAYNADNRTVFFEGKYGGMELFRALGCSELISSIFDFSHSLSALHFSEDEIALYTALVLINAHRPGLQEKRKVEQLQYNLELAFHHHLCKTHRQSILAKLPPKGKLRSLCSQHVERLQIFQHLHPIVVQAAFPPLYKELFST
The assay is described as follows: Time-resolved FRET (TR-FRET) RORγt coactivator assay. Particulars: GST-RORγ-LBD, biotinylated RIP140 peptide, coactivator displacement. Format: biochemical. The text has this:
Time-resolved FRET (TR-FRET) RORγt coactivator assay was used to identify RORγ modulator compounds with ligand-dependent coactivator displacement. The assay uses a d2-labeled anti-GST antibody, synthetic N-terminally biotinylated peptide which is derived from nuclear receptor coactivator protein RIP140, and a RORγt ligand-binding domain (RORγt-LBD) that is tagged with glutathione-S-transferase (GST). The influence of compounds on the RORγ-peptide interaction relies on the binding dependent energy transfer from a donor to an acceptor fluorophore attached to the binding partner of interest. […] For reduction of background from compound fluorescence, TR-FRET method makes use of generic fluorophore labels and time resolved detection.
The assays were done in a final volume of 20 μl in a 384 well plate in a CHAPS buffer (2 mM CHAPS; 1 mM DTT, 2 mM EDTA; 0.1% BSA), containing 20 nM recombinantly expressed RORγ-LBD fused to GST, 30 nM N-terminally biotinylated peptide, 1 nM streptavidin-terbium conjugate and 20 nM d2 labeled-anti-GST. Test compounds were diluted using 10 mM stock solution. The range of the final compound concentrations used in this test was from 0.3 nM to 30 μM (logarithmic scale). DMSO content of the samples was kept at 1%. The assay was equilibrated for 2 hours in the dark at room temperature in 384 well plates (Falcon). The signal was detected by an Ultra384 reader (TECAN). The results were visualized by plotting the ratio between the emitted light at 665 nm and 620 nm. A basal level of RORγ-peptide formation is observed in the absence of added compound. Compounds that promote coactivator displacement induce a concentration-dependent decrease in time-resolved fluorescent signal. Data were collected and analyzed using GraphPad Prism software (GraphPad Software V5.02, San Diego Calif. USA). IC50 in μM and Emax in % were reported for each compound.
Take `Cc1ccc(C(NC(=O)Cc2ccc3[nH]cc(CC(=O)O)c3c2)c2ccccc2)c(N2CCOCC2)c1` (stereo not drawn) [Cpd. 97, 2-{5-[({[4-methyl-2-(morpholin-4-yl)phenyl](phenyl)methyl}carbamoyl)methyl]-1H-indol-3-yl}acetic acid]: the IC50 lay in the range of 1000 to 10000 nM. `Cc1ccc(C(C(=O)NCc2ccc3[nH]cc(CCC(=O)OC(C)(C)C)c3c2)c2ccccc2)c(N2CCCCC2)c1` (stereo not drawn) [Cpd. 208, tert-butyl 3-[5-({2-[4-methyl-2-(piperidin-1-yl)phenyl]-2-phenylacetamido}methyl)-1H-indol-3-yl]propanoate] yielded an IC50 of under 1000 nM. `COC(=O)Cc1c[nH]c2ccc(CC(=O)NC(c3ccccc3)c3cccc(N4CCCCC4)c3)cc12` (stereo not drawn) [Cpd. 238, methyl 2-{5-[({phenyl[3-(piperidin-1-yl)phenyl]methyl}carbamoyl)methyl]-1H-indol-3-yl}acetate] displayed an IC50 of 1000 to 10000 nM. With `COC(=O)Cc1c[nH]c2ccc(CC(=O)NC(c3ccccc3)c3ccccc3N3CCCCCC3)cc12` (stereo not drawn) [Cpd. 74, methyl 2-{5-[({[2-(azepan-1-yl)phenyl](phenyl)methyl}carbamoyl)methyl]-1H-indol-3-yl}acetate], the IC50 was under 1000 nM. `CCOc1ccc(C(NC(=O)Cc2ccc3[nH]cc(CCC(=O)O)c3c2)c2ccccc2)c(OCC)c1` (stereo not drawn) [compound 247, 3-[5-({[(2,4-diethoxyphenyl)(phenyl)methyl]carbamoyl}methyl)-1H-indol-3-yl]propanoic acid] displayed an IC50 of under 1000 nM.

The molecule `CN(C)c1ccccc1C(NC(=O)Cc1ccc2[nH]cc(CCC(=O)O)c2c1)c1ccccc1` (stereo not drawn) [compound 54, 3-{5-[({[2-(dimethylamino)phenyl](phenyl)methyl}carbamoyl)methyl]-1H-indol-3-yl}propanoic acid] had an IC50 of under 1000 nM. Regarding `CC(C)CC(NC(=O)Nc1cnc2[nH]cc(CCC(=O)O)c2c1)c1ccccc1N1CCCCC1` (stereo not drawn) [compound 178, 3-{5-[({3-methyl-1-[2-(piperidin-1-yl)phenyl]butyl}carbamoyl)amino]-1H-pyrrolo[2,3-b]pyridin-3-yl}propanoic acid], the half-maximal inhibitory concentration (IC50) fell in the range of 10000 to 30000 nM. The molecule `Cc1ccc(C(NC(=O)Cc2ccc3[nH]cc(CCC(=O)O)c3c2)C2CC2)c2ccccc12` (stereo not drawn) [compound 164, 3-[5-({[cyclopropyl(4-methylnaphthalen-1-yl)methyl]carbamoyl}methyl)-1H-indol-3-yl]propanoic acid] returned an IC50 of under 1000 nM. The molecule `Cc1ccc(C(NC(=O)Cc2ccc3[nH]cc(CCC(=O)OC(C)(C)C)c3c2)c2ccc(C)s2)c(N2CCCCC2)c1` (stereo not drawn) [Cpd. 137, tert-butyl 3-{5-[({[4-methyl-2-(piperidin-1-yl)phenyl](5-methylthiophen-2-yl)methyl}carbamoyl)methyl]-1H-indol-3-yl}propanoate] returned an IC50 of 1000 to 10000 nM. Take `CCOc1ccc(C(NC(=O)Cc2ccc3[nH]cc(CCC(=O)OC(C)(C)C)c3c2)c2ccccc2)c(N2CCCCC2)c1` (stereo not drawn) [Cpd. 149, tert-butyl 3-{5-[({[4-ethoxy-2-(piperidin-1-yl)phenyl](phenyl)methyl}carbamoyl)methyl]-1H-indol-3-yl}propanoate]: the IC50 lay in the range of 1000 to 10000 nM. With `Cc1ccc(C(NC(=O)Cc2ccc3[nH]cc(C(=O)O)c3c2)c2ccccc2)c(Br)c1` (stereo not drawn) [compound 207, 5-({[(2-bromo-4-methylphenyl)(phenyl)methyl]carbamoyl}methyl)-1H-indole-3-carboxylic acid] the figure was 1000 to 10000 nM.

Take `O=C(O)Cc1c[nH]c2ccc(CC(=O)NC(c3ccccc3)c3ccc(Cl)cc3N3CCCC3)cc12` (stereo not drawn) [compound 85, 2-{5-[({[4-chloro-2-(pyrrolidin-1-yl)phenyl](phenyl)methyl}carbamoyl)methyl]-1H-indol-3-yl}acetic acid]: the IC50 is under 1000 nM.

As to `O=C(O)CCc1c[nH]c2ccc(CC(=O)NC(c3ccccc3)c3ccccc3N3CC=CCC3)cc12` (stereo not drawn) [compound 128, 3-{5-[({phenyl[2-(1,2,3,6-tetrahydropyridin-1-yl)phenyl]methyl}carbamoyl)methyl]-1H-indol-3-yl}propanoic acid], the IC50 is under 1000 nM. `Cc1ccc(C(NC(=O)Cc2ccc3[nH]cc(CCC(=O)OC(C)(C)C)c3c2)c2ncccn2)c(Br)c1` (stereo not drawn) [Cpd. 226, tert-butyl 3-[5-({[(2-bromo-4-methylphenyl)(pyrimidin-2-yl)methyl]carbamoyl}methyl)-1H-indol-3-yl]propanoate] displayed an IC50 of under 1000 nM. The figure for `CC(C)(C)OC(=O)CCc1c[nH]c2ccc(CC(=O)NC(c3ccccc3)c3cc(Br)ccc3N3CCCC3)cc12` (stereo not drawn) [Cpd. 116, tert-butyl 3-{5-[({[5-bromo-2-(pyrrolidin-1-yl)phenyl](phenyl)methyl}carbamoyl)methyl]-1H-indol-3-yl}propanoate] is 1000 to 10000 nM. As for `Cc1ccc(C)c(C(NC(=O)Cc2ccc3[nH]cc(CCC(=O)O)c3c2)c2ccccc2)c1` (stereo not drawn) [Cpd. 13, 3-[5-({[(2,5-dimethylphenyl)(phenyl)methyl]carbamoyl}methyl)-1H-indol-3-yl]propanoic acid], the IC50 is under 1000 nM. As for `Cc1ncc(C(NC(=O)Cc2ccc3[nH]cc(CCC(=O)O)c3c2)c2ccccc2N2CCCCC2)s1` (stereo not drawn) [compound 156, 3-[5-({[(2-methyl-1,3-thiazol-5-yl)[2-(piperidin-1-yl)phenyl]methyl]carbamoyl}methyl)-1H-indol-3-yl]propanoic acid], the IC50 lay in the range of 1000 to 10000 nM.

On to `Cc1ccc(C(NC(=O)Cc2ccc3[nH]cc(CCC(=O)OC(C)(C)C)c3c2)c2ccccc2)c(N2CCOCC2)c1` (stereo not drawn) [Cpd. 80, tert-butyl 3-{5-[({[4-methyl-2-(morpholin-4-yl)phenyl](phenyl)methyl}carbamoyl)methyl]-1H-indol-3-yl}propanoate], for which the IC50 was under 1000 nM. As for `CC(C)CC(NC(=O)Nc1ccc2[nH]cc(CCC(=O)OC(C)(C)C)c2c1)c1ccccc1N1CCCCC1` (stereo not drawn) [compound 262, tert-butyl 3-{5-[({3-methyl-1-[2-(piperidin-1-yl)phenyl]butyl}carbamoyl)amino]-1H-indol-3-yl}propanoate], the IC50 lay in the range of 1000 to 10000 nM. On to `Cc1ccc(C(CC(C)C)NC(=O)Cc2ccc3[nH]cc(CCC(=O)OC(C)(C)C)c3c2)c(N(C)C)c1` (stereo not drawn) [Cpd. 133, tert-butyl 3-{5-[({1-[2-(dimethylamino)-4-methylphenyl]-3-methylbutyl}carbamoyl)methyl]-1H-indol-3-yl}propanoate], for which the IC50 was 1000 to 10000 nM. With `COC(=O)Cc1c[nH]c2ccc(CC(=O)NC(c3ccccc3)c3ccccc3N3CCOCC3)cc12` (stereo not drawn) [Cpd. 224, methyl 2-{5-[({[2-(morpholin-4-yl)phenyl](phenyl)methyl}carbamoyl)methyl]-1H-indol-3-yl}acetate] the figure was under 1000 nM.

In turn, `Cc1ccc(C(NC(=O)Cc2ccc3[nH]cc(CCC(=O)OC(C)(C)C)c3c2)c2ccccc2)c(N2CCN(C)CC2)c1` (stereo not drawn) [Cpd. 102, tert-butyl 3-{5-[({[4-methyl-2-(4-methylpiperazin-1-yl)phenyl](phenyl)methyl}carbamoyl)methyl]-1H-indol-3-yl}propanoate] showed an IC50 of 1000 to 10000 nM. With `COC(=O)Cc1c[nH]c2ccc(CC(=O)NC(c3ccccc3)c3ccc(Br)cc3N3CCCC3)cc12` (stereo not drawn) [Cpd. 66, methyl 2-{5-[({[4-bromo-2-(pyrrolidin-1-yl)phenyl](phenyl)methyl}carbamoyl)methyl]-1H-indol-3-yl}acetate] the figure was under 1000 nM; with `O=C(O)Cc1c[nH]c2ccc(CC(=O)NC(c3ccccc3)c3ccc(Br)cc3N3CCCC3)cc12` (stereo not drawn) [compound 67, 2-{5-[({[4-bromo-2-(pyrrolidin-1-yl)phenyl](phenyl)methyl}carbamoyl)methyl]-1H-indol-3-yl}acetic acid], under 1000 nM; with `O=C(O)CCc1c[nH]c2ccc(CC(=O)NC3(c4ccccc4N4CCCC4)CCCC3)cc12` [compound 130, 3-{5-[({1-[2-(pyrrolidin-1-yl)phenyl]cyclopentyl}carbamoyl)methyl]-1H-indol-3-yl}propanoic acid], under 1000 nM. As for `CC(C)CC(NC(=O)Cc1ccc2[nH]cc(CCC(=O)O)c2c1)c1ccccc1OC(C)C` (stereo not drawn) [compound 241, 3-{5-[({3-methyl-1-[2-(propan-2-yloxy)phenyl]butyl}carbamoyl)methyl]-1H-indol-3-yl}propanoic acid], the IC50 was under 1000 nM. In turn, `Nc1ccccc1C(NC(=O)Cc1ccc2[nH]cc(CCC(=O)O)c2c1)c1ccccc1` (stereo not drawn) [compound 52, 3-[5-({[(2-aminophenyl)(phenyl)methyl]carbamoyl}methyl)-1H-indol-3-yl]propanoic acid] gave an IC50 of 1000 to 10000 nM.
